Source: patent US20250282829A1, “ENGINEERED SYNTHETIC PEPTIDES, COMPOSITIONS COMPRISING SAME, AND METHODS OF USE THEREOF FOR TREATING MALIGNANT GLIOMAS” (INSTYTUT BIOLOGII DOSWIADCZALNEJ IM. MARCELEGO NENCKIEGO …, priority 2022, published 2025)

What was measured:
alphav integrins = molecular target: T1, alphav integrins (Homo sapiens, UniProt P06756); details: large number of patients, phase III; cited from earlier work
T1 construct: host or cells: patients

recombinant OPN protein = recombinant OPN protein (Homo sapiens, UniProt P10451); assay: ELISA assessing peptide-protein binding; details: N-terminal biotin peptides on OPN-coated plates
Sequence of recombinant OPN protein (P10451 17-314): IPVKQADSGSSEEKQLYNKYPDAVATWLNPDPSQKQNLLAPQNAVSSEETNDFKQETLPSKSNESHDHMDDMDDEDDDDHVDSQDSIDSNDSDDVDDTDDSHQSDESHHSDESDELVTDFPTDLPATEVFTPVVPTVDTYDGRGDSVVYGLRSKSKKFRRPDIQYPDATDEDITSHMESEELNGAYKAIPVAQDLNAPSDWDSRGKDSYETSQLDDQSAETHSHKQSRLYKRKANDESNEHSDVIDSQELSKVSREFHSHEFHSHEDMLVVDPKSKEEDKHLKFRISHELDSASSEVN
Protocol: FIGS. 2A and 2B. OPN-binding peptides. (FIG. 2A) OPN binding peptides were identified using peptide microarrays comprising synthetic peptides. Images of peptide microarrays after incubation with PBS buffer (control), with rhOPN and after immunochemical staining. Control peptides (peptide containing Myc tag—positive control) and peptides with the highest signal were marked on the microarray image. (FIG. 2B) OPN binding peptides identified using ELISA. Peptides with the strongest binding to OPN were selected. Means ±SD are shown, standard deviations were calculated from three independents measurements.
To verify the obtained results, the ELISA method assessing peptide-protein binding was used. In the assay, 96-well ELISA plates were coated with recombinant OPN protein. Uncoated wells were used as controls. Unbound proteins were then washed away and the remaining non-specific binding was blocked with bovine serum protein (BSA). Test peptides with N-terminal biotin attached were added. After incubation, unbound peptides were removed by washing several times. Peptides that bound to OPN were detected using a primary anti-biotin antibody and a secondary antibody linked to horseradish peroxidase. This enzyme catalyses a reaction in which a coloured product is formed from the added substrate. The amount of bound peptides was proportional to the amount of coloured product, which was measured using a spectrophotometer. Of the 52 integrin receptor-derived peptides tested, 9 OPN-binding peptides were identified: I3, I4, I20, I32, I38, I40, I47, I49, I50 (FIG. 2B). The following peptides were selected for further analysis: […], I4, I20, I32, I38, I40, I47, I49, I50.

[1] = tested on: U87 MG cells stimulated by BV2 microglial cells; assay: Matrigel invasiveness of U87 MG cells in co-culture with BV2 microglia; format: cell-based, human; details: 100 μM, 18 h
Protocol: (§1) FIG. 4. Effect of OPN binding peptides on U87 MG cell invasiveness in the presence of murine BV2 and human SV40 microglial cells. (K−)—negative control—invasiveness of U87 MG cells without microglia; (K+)—positive control, invasiveness of U87 MG dependent on BV2 or SV40 microglia, defined as 100%; DMSO-cells treated with 0.2% DMSO-peptide solvent. Results are presented as means ±standard deviation calculated from three independent biological replicates. Selected peptides block microglia-dependent invasiveness.
(§2) Studies conducted by the present inventors indicate an important role of the OPN protein in the reprogramming of microglia and peripheral macrophages by glioblastoma cells to a protumorigenic phenotype (Ellert-Miklaszewska et al. 2016). […] Investigating the contribution of human OPN to human glioblastoma growth is important in the context of using a peptide that binds human OPN produced by glioma and can block communication between the glioma and the microenvironment. The U87 MG RFP human glioblastoma cell line was established with silenced expression of the OPN protein (shOPN). […] The number of glioma cells actively penetrating the Matrigel Matrix layer (BD Biosciences, extracellular matrix surrogate) in the presence of SV40 human microglial cells was counted. Microglial cells are plated on 24-well plate, after 24 hours, inserts previously covered with Matrigel suspension are placed in the wells, and glioblastoma cells are seeded on its surface. The tested compounds, potentially blocking the invasiveness of cells, are added in a certain concentration to the medium in both the lower and upper layers of the system. After 18 hours of incubation, the Matrigel is removed and the cells on the insert membrane (invading cells) are fixed and stained with a DAPI fluorescent marker. Slides were then photographed using a fluorescence microscope and cells were counted using Image J software (imagej.nih.gov/ij/).
(§3) The effect of selected OPN-binding peptides on the invasiveness of U87 MG cells stimulated by the presence of microglial cells was investigated. […]

[2] = tested on: U87 MG cells and SV40 human microglia cells; assay: Matrigel invasiveness of U87 MG cells with SV40 human microglia; format: cell-based
Protocol: as §1, §2, §3

[3] = tested on: human glioblastoma U87 MG RFP cells implanted in the brain of nude mice; assay: Mouse model of human glioblastoma, intratumoural osmotic pump, MRI tumour size; format: in vivo; details: osmotic pump for 3 weeks, MRI T2, control peptide I49S
Protocol: FIGS. 5A and 5B. Effect of peptide 149 on glioblastoma growth in mice. (FIG. 5A) Representative images obtained after vital MRI imaging. The pictures show a section through the center of the tumour, showing the cannula supplying the peptide from the osmotic pump. (FIG. 5B) Tumour volume (n=10) calculated using OsiriX DICOM Viewer from MRI scans.
The anticancer effect of the 149 peptide has been tested. The model of human glioblastoma U87 MG RFP cells implanted in the brain of nude (immunodeficient) mice was used. Peptides were administered via osmotic pumps delivering the peptide directly to the tumour at a constant rate. […] Peptide I49 or control peptide I49S were administered using pumps for 3 weeks, pumps were installed in the mouse brain immediately after implantation of U87 MG RFP cells. Magnetic resonance imaging (MRI T2) was used to assess the size of the tumours.

T1 sequence (P06756 31-1048): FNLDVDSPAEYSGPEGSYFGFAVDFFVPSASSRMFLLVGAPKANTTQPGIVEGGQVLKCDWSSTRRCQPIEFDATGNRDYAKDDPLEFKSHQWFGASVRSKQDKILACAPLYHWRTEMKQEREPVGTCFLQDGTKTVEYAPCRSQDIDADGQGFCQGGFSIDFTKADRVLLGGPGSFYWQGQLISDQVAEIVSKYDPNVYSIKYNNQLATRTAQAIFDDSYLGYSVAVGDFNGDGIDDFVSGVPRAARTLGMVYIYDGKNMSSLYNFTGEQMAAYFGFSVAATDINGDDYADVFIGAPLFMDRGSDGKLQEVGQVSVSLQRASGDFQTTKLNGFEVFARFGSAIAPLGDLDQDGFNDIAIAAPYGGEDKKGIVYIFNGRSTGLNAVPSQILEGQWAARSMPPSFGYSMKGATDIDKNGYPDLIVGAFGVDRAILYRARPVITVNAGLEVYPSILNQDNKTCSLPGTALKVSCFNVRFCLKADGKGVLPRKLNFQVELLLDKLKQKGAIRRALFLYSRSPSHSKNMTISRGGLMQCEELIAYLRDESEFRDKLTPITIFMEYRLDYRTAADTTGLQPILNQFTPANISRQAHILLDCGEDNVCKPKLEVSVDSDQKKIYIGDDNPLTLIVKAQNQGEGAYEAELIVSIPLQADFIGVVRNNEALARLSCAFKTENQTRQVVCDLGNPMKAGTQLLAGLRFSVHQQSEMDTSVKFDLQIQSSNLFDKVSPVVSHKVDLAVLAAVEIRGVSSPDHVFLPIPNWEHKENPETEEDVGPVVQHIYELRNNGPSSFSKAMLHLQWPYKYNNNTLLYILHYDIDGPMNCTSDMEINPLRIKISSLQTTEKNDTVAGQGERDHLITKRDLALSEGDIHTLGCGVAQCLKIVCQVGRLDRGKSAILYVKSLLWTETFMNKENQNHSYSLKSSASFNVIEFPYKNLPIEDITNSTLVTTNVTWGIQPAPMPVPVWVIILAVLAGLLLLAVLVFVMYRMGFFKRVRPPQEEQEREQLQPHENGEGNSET

CC(C)[C@H]1C(=O)N[C@@H](CCCN=C(N)N)C(=O)NCC(=O)N[C@@H](CC(=O)O)C(=O)N[C@H](Cc2ccccc2)C(=O)N1C [cilengitide, cyclo-(Arg-Gly-Asp-DPhe-NMe-Val)]
clinical effectiveness (alphav integrins): did not show the effectiveness

SKYDPNVYSIKYNN (listed as Homo sapiens) [I40]
peptide binding to OPN in ELISA (recombinant OPN protein): OPN-binding
inhibition of microglia-dependent glioma cell invasiveness [1]: inhibited microglia-dependent glioma cell invasiveness
effect on invasiveness of U87 cells in the presence of human SV40 microglia [2]: inhibited the invasiveness

SLYNFTGEQMAAYF (listed as Homo sapiens) [I50]
peptide binding to OPN in ELISA (recombinant OPN protein): OPN-binding
inhibition of microglia-dependent glioma cell invasiveness [1]: inhibited microglia-dependent glioma cell invasiveness
effect on invasiveness of U87 cells in the presence of human SV40 microglia [2]: inhibited the invasiveness

YDGKNMSSLYNFTG [I49]
peptide binding to OPN in ELISA (recombinant OPN protein): OPN-binding
inhibition of microglia-dependent glioma cell invasiveness [1]: inhibited microglia-dependent glioma cell invasiveness
effect on invasiveness of U87 cells in the presence of human SV40 microglia [2]: inhibited the invasiveness
tumour growth compared to the control group [3]: reduction in tumour growth
